Laboratory results published in US20110070314A1 (priority 2009, published 2011).

What was measured:
[1] = mouse, in vivo
T98G cells = assay type: cell-based, human
U373 cells = assay type: cell-based, human
U138 cells = assay type: cell-based, human
[2] = test system: U-87MG orthotopic glioblastoma; settings: mouse, in vivo
U-87MG cells = assay type: cell-based, human
[3] = mouse, in vivo; remark: listed apart in the source
brain tumors = settings: human, in vivo
[4] = test system: U-87MG orthotopic glioblastoma; settings: mouse, in vivo; remark: listed apart in the source

sodium meta arsenite
Crossing of the blood brain barrier [1]: can readily cross the blood brain barrier | Anticancer effect (cell viability) vs control (T98G cells): significant anticancer effects | Dose dependence of anticancer effect (T98G cells): dose-dependent anticancer effects | Anticancer effect (cell viability) vs control (U373 cells): significant anticancer effects | Dose dependence of anticancer effect (U373 cells): dose-dependent anticancer effects | Anticancer effect (cell viability) vs control (U138 cells): significant anticancer effects | Dose dependence of anticancer effect (U138 cells): dose-dependent anticancer effects | Body weight difference between groups [2]: no significant difference | Inhibition of tumor growth ([2]; po, 1.25 mg/kg): 28% | Tumor mass ([2]; po, 1.25 mg/kg): 40.2±12.3 mm^3 | MRI imaging of tumor mass ([2]; po, 5 mg/kg): decrease of tumor mass | Anticancer effect (cell viability) vs control (U-87MG cells): significant anticancer effects | Dose dependence of anticancer effect (U-87MG cells): dose-dependent anticancer effects | Adverse effects following oral and IV administration [3]: No adverse effects were observed | Clinical signs during testing [3]: No clinical signs were observed | MRI finding on brain tumor (brain tumors): brain tumor was completely gone. | Side effects (brain tumors): Pt # 1 did not find any particular | Time until pain lessened (brain tumors): side effects, and within 5 days them | Effect on lung cancer (brain tumors; iv): conditions appear to be stable. | Effect on tumor in the brain (brain tumors; iv): the tumor in the brain disappeared | Serum ALT and AST difference between the groups [4]: no significant difference | Anticancer effect ([4]; po, 10 mg/kg): no anticancer effect
